Results on 87 compounds are retold here after a melting point compilation (Tetko et al.; mined from patent text by program, amines drawn as free bases though some values may be those of a salt).

Molecules are shown by their SMILES.

By melting point is commonly meant the temperature of the solid-liquid transition.

With `CC(C)n1cc(-c2c(-c3ccc(F)cc3)nn3ccncc23)ccc1=O`, the melting point was in the range of 214 to 215 °C.

The compound `Cc1noc(NS(=O)(=O)c2ccc(Nc3ccc([N+](=O)[O-])cc3[N+](=O)[O-])cc2)c1C` registered a melting point of 187 °C.

As to `O=C1CCC(c2cc(F)c(F)c(F)c2)CC1`, the melting point came out at 124 °C.

In the case of `O=C1CCC(C(=O)c2ccccc2)N1` (configuration not stated), the melting point was found to be 175 °C.

The compound `N#CC(CNC(=O)Nc1cncnc1)C(=O)O` (configuration not stated) displayed a melting point of 183 °C.

`NC1=Nc2ccc(I)cc2C(c2ccccc2F)=NC1` came in with a melting point of 219 to 221 °C.

The compound `COc1ccc(OC)c(C(=O)/C=C/C(=C/C(=O)O)c2ccccc2)c1` yielded a melting point of 165 °C.

As for `CN1CCN(c2ccc([N+](=O)[O-])cc2)S1(=O)=O`, the melting point was in the range of 155 to 163 °C.

In turn, `OCc1nccc(N2CCCCC2)c1Cl` came in with a melting point of 68 to 70 °C.

On to `C#CCOc1cc(-n2nc(C)c([N+](=O)[O-])c2C)c(F)cc1Cl`, for which the melting point lay in the range of 125 to 126 °C.

Take `COc1ccc(OC)c2c1COC(c1ncc(S(=O)(=O)c3ccc(C)cc3)o1)C2` (configuration not stated): the melting point is 138 to 140 °C.

The compound `COc1ccc(Cl)cc1NC(=O)[C@H]1[C@H](c2ccccc2)C1(C)C` (relative stereo) showed a melting point of 155 to 157 °C.

Consider `NC(=O)c1[nH]cnc1OC(=O)c1ccc(Cl)cc1`, for which the melting point was 220 °C.

Regarding `CC(C)(C)C(NC(=O)c1ccc(Cl)cc1)NC(=NC#N)NCc1cccc(Cl)c1` (configuration not stated), the melting point was 178 to 180 °C.

In turn, `C=CC(=O)NCCCCCCCCCCCCCCCCCC` had a melting point of 75 to 77 °C.

On to `COc1cc(CCCn2ccnc2)ccc1OCc1coc(-c2ccc(C)s2)n1`, for which the melting point is 92 to 93 °C.

Regarding `CCOC(=O)C(CC(=O)O)(Cc1cn(C)c2ccccc12)C(=O)OCC`, the melting point fell in the range of 127 to 130 °C.

For the compound `COC(=O)CCC(=O)c1ccc2c(c1)CC(CCNC(C)=O)C2` (configuration not stated), the melting point was in the range of 96 to 97 °C.

Compound `CC1(C)CON(Cc2ccc(NC(=O)Cc3ccccc3C(=O)O)cc2Cl)C1=O` returned a melting point of 194 to 196 °C.

Take `CCn1cc(Nc2nc(Br)cn(C)c2=O)cn1`: the melting point fell in the range of 138 to 140 °C.

On to `COc1ccc(CN(C(=O)C2CCCc3c(O)cccc32)c2ccc(C(C)C)cc2)c(OC)n1` (configuration not stated), for which the melting point was determined as 190 °C.

In turn, `O=C(Nc1ccc(C(=O)Oc2ccccc2)c(Cl)c1)NS(=O)(=O)c1ccccc1` registered a melting point of 183 to 185 °C.

For `CCOCCn1cc2c(C3C(=O)Nc4ccc(Cl)cc43)nc(NCCN(C)C)nc2n1` (configuration not stated), the melting point was in the range of 293 to 295 °C.

`CC(C)(C)OC(=O)C(Cl)=CC1C(C(=O)OC(C#N)c2ccc(F)c(Oc3ccccc3)c2)C1(C)C` (configuration not stated) registered a melting point of 94 °C.

`COc1cc(C)c(S(C)(=O)=O)cc1C(=O)O` yielded a melting point of 228 °C.

Regarding `COc1ccccc1NC(=O)N1CCc2cc(S(=O)(=O)N3CC(c4ccccc4)NC3=O)ccc21` (configuration not stated), the melting point fell in the range of 202 to 204 °C.

`Cn1cncc1C1SCCCS1` came in with a melting point of 112 °C.

`COc1ccc(CCN2CCc3cc(OC[C@H]4CO[C@](Cn5ccnc5)(c5ccc(Cl)cc5Cl)O4)ccc3C2)cc1` (racemic) registered a melting point of 121 to 122 °C.

For the compound `COc1ccc2cc(C3SCCCS3)ccc2c1`, the melting point came to 190 °C.

The compound `O=C1OC(=O)c2c1cccc2C(F)(F)F` came in with a melting point of 65 to 67 °C.

`O=C(O)C1Cc2c(ncn2Cc2ccccc2)CN1C(=O)C(c1ccccc1)c1ccccc1` (configuration not stated) returned a melting point of 167 to 169 °C.

Regarding `CNc1cc(Oc2ccc(NC(=O)Nc3ccc(C(C)(C)C)cc3)cc2)ncn1`, the melting point is 245 to 246 °C.

Take `CCC(OC)(c1ccc(OCc2cc3ccccc3[nH]c2=O)c(OC)c1)c1nccs1` (configuration not stated): the melting point lay within 170 to 171 °C.

In the case of `CC(Sc1ncnc2[nH]cnc12)c1oc2ccc(Br)cc2c(=O)c1-c1ccccc1` (configuration not stated), the melting point was 234 to 237 °C.

Compound `CCn1c(=O)c2c(nc(/C=C/c3cc(OC)ccc3OC(=O)c3ccccc3)n2C)n(CC)c1=O` had a melting point of 254 to 255 °C.

`COCCc1nc2c(N)nc3cc(-c4ccccc4)ccc3c2n1CC(C)(C)O` displayed a melting point of 226 to 227 °C.

For `CCCn1nc2c(N)nc3ccccc3c2c1CC(C)(C)C#N`, the melting point was in the range of 248 to 250 °C.

On to `CC(C)N1C(=O)N(c2ccccc2Cl)CSC1=NC(C)(C)C`, for which the melting point was in the range of 88 to 89 °C.

`Cn1c(=O)n(C)c2cc(C(=O)CSCCC(=O)O)ccc21` yielded a melting point of 174 to 176 °C.

Compound `CC(C)(C)C(NC(=O)Cc1ccc(Cl)cc1)NC(=NC#N)c1cccc2ncccc12` (configuration not stated) had a melting point of 218 to 220 °C.

On to `COc1ccccc1N1CCN(Cc2ccc(NC(=O)C3=Cc4cc(-c5ccc(C)cc5)ccc4CC3)cc2)CC1`, for which the melting point fell in the range of 202 to 205 °C.

As to `Fc1ccc(-c2cc(C(F)(F)F)n3cnc(-c4ccncc4)c3n2)cc1Cl`, the melting point came to 266 °C.

Regarding `Cc1cccc2c1nc(-c1c(F)cccc1F)n2Cc1cccnc1`, the melting point lay in the range of 131 to 132 °C.

`CCCC(=O)C1c2cccc(O)c2C(=O)c2c(O)cccc21` had a melting point of 138 °C.

With `Cc1nc2c(c(N3CCN(CCO)CC3)n1)OC(C)C(=O)N2` (configuration not stated), the melting point lay in the range of 160 to 161 °C.

Compound `Nc1sc(-c2ccoc2)c(CN(C2CCCCC2)C2CCCCC2)c1C(=O)c1ccc(Cl)cc1` had a melting point of 132 to 135 °C.

For `COc1cc(OC)c(-c2cc3ccccc3n2C)cc1C=CC(=O)c1ccc(S(=O)(=O)NCCN2CCOCC2)cc1`, the melting point fell in the range of 167 to 168 °C.

In turn, `CCCCc1nn(-c2ccccc2C(F)(F)F)c(=O)n1Cc1ccc(-c2cc(CCC)ccc2S(=O)(=O)NC(=O)c2ccccc2Cl)cc1F` gave a melting point of 79 to 82 °C.

In turn, `Nc1sc2c(c1C(=O)c1ccc(F)cc1)CCN(C(=O)OCc1ccccc1)C2` showed a melting point of 90 to 92 °C.

`O=Cc1ccc(-c2nn(Cc3ccccc3)c3ccccc23)o1` displayed a melting point of 108 °C.

On to `CC1(C)C=C(n2cncn2)c2cccc(OCc3c(Cl)ccc(S(=O)(=O)N4CCC[C@H]4C(=O)O)c3Cl)c2N1`, for which the melting point was 146 °C.

For the compound `Cn1c(CCCOc2ccc(CC3SC(=O)N(C(c4ccccc4)(c4ccccc4)c4ccccc4)C3=O)cc2)nc2cccnc21` (configuration not stated), the melting point fell in the range of 76 to 81 °C.

For `O=C1c2ccc(O)cc2OCN1CCO`, the melting point lay within 182 to 184 °C.

`Cc1nc(C(F)(F)F)ccc1C(=O)C1=C(Cl)C2CCC(C2)C1=O` (configuration not stated): the melting point lay within 137 to 138 °C.

`COc1cccc(C(=O)N2CCc3cc(O)c(OC)cc3C2)c1` yielded a melting point of 141 to 142 °C.

As to `COc1cc(OC)nc(-c2ccc(-c3ccccc3S(=O)(=O)Nc3onc(C)c3C)cc2)n1`, the melting point lay within 83 to 93 °C.

As for `O=C(O)CCCNC(=O)c1cc(Br)no1`, the melting point is 140 to 141 °C.

Compound `CC(C)(C)c1cc(N)n(-c2ccccc2)n1` came in with a melting point of 65 to 67 °C.

Turning to `CCc1nn(C2CCCC2)c2cc(C(=O)NCCc3ccncc3)ccc12`, the melting point was 123 to 126 °C.

`CCCCC(=O)NC(C#N)C(=O)OCC` (configuration not stated) displayed a melting point of 88 °C.

Turning to `Cc1ccc(-c2cc(CN3CCN(C(=O)OC(C)(C)C)CC3)c(=O)n(CC(C)C)n2)cc1F`, the melting point is 68.7 to 69 °C.

`ClC(=NNc1ccc(Cl)cc1)c1ccccc1` showed a melting point of 107 to 108 °C.

Consider `CCCc1nc(N)nc(N)c1N1CCN(c2ccc(C#N)cc2)CC1`, for which the melting point was above 300 °C.

As to `CC1=CC(OC(=O)c2ccc([N+](=O)[O-])cc2)C(O)C(C)(C)CC1=O` (configuration not stated), the melting point fell in the range of 151 to 152 °C.

As for `CCn1cc(C(=O)c2ccccc2)c(=O)c2cn(C)nc21`, the melting point lay in the range of 217 to 218 °C.

`Clc1cc(Cl)c2nc[nH]c2n1` gave a melting point of 263 °C.

For the compound `CCCc1nc2c(N)nc3cc(OC)ccc3c2s1`, the melting point is 152 to 154 °C.

`CC(C)(C)OC(=O)COc1ccc(C(=O)O)cc1`: the melting point fell in the range of 119 to 121 °C.

Compound `Cc1ccc(C)n1-c1ccc(/C=C/C(=O)N(C)O)cc1` came in with a melting point of 143 to 145 °C.

Compound `Cc1sc(-c2cccc(Br)c2)nc1O` displayed a melting point of 148 to 149 °C.

`NC(CF)(Cc1cc(O)ccc1O)C(=O)O` (configuration not stated) returned a melting point of 212 °C.

`OC(Cn1ccnc1)(c1ccccc1)c1ccc(-c2ccccc2)cc1` (configuration not stated) yielded a melting point of 224 °C.

Compound `COc1ccc(N2C(=O)C(C)N(c3ccc(Oc4ccc(O)cc4)cc3)C2=S)cc1` (configuration not stated) yielded a melting point of 196 to 198 °C.

`O=C1NCCc2cc(Br)ccc21` came in with a melting point of 137 to 139 °C.

`COc1ccc(C(=O)Nc2cc(-c3c(-c4ccc(F)c(C)c4)nc4ccc(N(C)C)nn34)ccn2)cc1`: the melting point lay within 224 to 225 °C.

`CCOC(=O)c1cnc2n(c1=O)C(C)CC=C2NC` (configuration not stated) showed a melting point of 141 to 142 °C.

With `CN1CCN(c2ncc(-c3cnc4c(c3)N(Cc3c(F)ccc(F)c3Cl)CCN4)cn2)CC1`, the melting point lay in the range of 194 to 195 °C.

With `CCOc1cccc(-c2cnc3[nH]cc(C(=O)C(C)(C)C)c3n2)c1`, the melting point is 195 to 196 °C.

`Cc1c(C)c2c(c(C)c1NC(=O)c1ccc(Cl)cc1)C(c1ccc(C(C)C)cc1)C(C)(C)O2` (configuration not stated) came in with a melting point of 201 to 203 °C.

As for `CC(=O)Nc1ccc(OCCN2CCc3ccc([N+](=O)[O-])cc3CC2)cc1C`, the melting point was in the range of 132 to 134 °C.

The compound `O=C(O)c1c[nH]c2c(OCC3CN(Cc4ccccc4)CCN3Cc3ccccc3)c(F)c(F)cc2c1=O` (configuration not stated) displayed a melting point of 158 to 159 °C.

Compound `O=C(O)CCC1(CCC(=O)O)CCCCC(CCC(=O)O)(CCC(=O)O)C1=O` gave a melting point of 230 to 232 °C.

With `CN(C)C=CC(=O)c1cccc(C(F)(F)F)c1`, the melting point lay in the range of 60.5 to 62 °C.

`N#CCCNC(=O)c1n[nH]cc1NC(=O)c1cccc(C#N)c1` came in with a melting point of 248 to 249 °C.

With `CNC(=O)C(Cc1c[nH]c2ccccc12)NC(=O)C(CC(C)C)C(S)CC(=O)OC` (configuration not stated), the melting point is 73 to 75 °C.

For `CN(C)S(=O)(=O)c1ccc2c(c1)S(=O)(=O)N=C1CCCN12`, the melting point fell in the range of 251 to 253 °C.

The compound `CCC(CC)Nc1cc(C)nc(Nc2c(C)cc(C)cc2C)c1N` returned a melting point of 213 to 216 °C.
